Experimental data published in patent US8877748B2, “Heterocyclic fused anthraquinone derivatives, manufacturing method and pharmaceutical composition using thereof” (National Defense Medical Center, priority 2012, dated 2014).

Columns and labels:
[1] = system: PC-3 prostate cancer cell line; test: SRB assay cell viability, PC-3 prostate cancer cell line; format: cell-based, human; conditions: Homo sapiens, PC-3 prostate cancer cell line, Table II prints no unit, μM printed, read-out: SRB assay: 50% inhibition of cancer cell proliferation of sample concentration (IC50) of PC-3 prostate cancer cell line
CCRF-CEM = test: NCI screening platform one-dose single concentration screening, leukemia CCRF-CEM; format: cell-based, human; conditions: 10 μM
HL-60, TB = test: NCI one-dose screening, leukemia HL-60, TB; format: cell-based, human; conditions: 10 μM
MOLT-4 = test: NCI one-dose screening, leukemia MOLT-4; format: cell-based, human; conditions: 10 μM
SR = test: NCI one-dose screening, leukemia SR; format: cell-based, human; conditions: 10 μM
PRMI-8226 cell line = test: NCI one-dose screening, leukemia PRMI-8226; format: cell-based, human; conditions: 10 μM
K562cell line = test: NCI one-dose screening, leukemia K562; format: cell-based, human; conditions: 10 μM
EKVX = test: NCI one-dose screening, non-small cell lung cancer EKVX; format: cell-based, human; conditions: 10 μM
HOP-62 = test: NCI one-dose screening, non-small cell lung cancer HOP-62; format: cell-based, human; conditions: 10 μM
HOP-92 = test: NCI one-dose screening, non-small cell lung cancer HOP-92; format: cell-based, human; conditions: 10 μM
NCI-H226 = test: NCI one-dose screening, non-small cell lung cancer NCI-H226; format: cell-based, human; conditions: 10 μM
NCI-H23 = test: NCI one-dose screening, non-small cell lung cancer NCI-H23; format: cell-based, human; conditions: 10 μM
NCI-H322M = test: NCI one-dose screening, non-small cell lung cancer NCI-H322M; format: cell-based, human; conditions: 10 μM; Non-small cell lung cancer
NCI-H460 = test: NCI one-dose screening, non-small cell lung cancer NCI-H460; format: cell-based, human; conditions: 10 μM
NCI-H522 = test: NCI one-dose screening, non-small cell lung cancer NCI-H522; format: cell-based, human; conditions: 10 μM
A549/ATCC = test: NCI one-dose screening, non-small cell lung cancer A549/ATCC; format: cell-based, human; conditions: 10 μM
COLO 205 = test: NCI one-dose screening, colon cancer COLO 205; format: cell-based, human; conditions: 10 μM
HCC-2998 = test: NCI one-dose screening, colon cancer HCC-2998; format: cell-based, human; conditions: 10 μM
HCT-116 = test: NCI one-dose screening, colon cancer HCT-116; format: cell-based, human; conditions: 10 μM
HCT-15 = test: NCI one-dose screening, colon cancer HCT-15; format: cell-based, human; conditions: 10 μM
KM12 = test: NCI one-dose screening, colon cancer KM12; format: cell-based, human; conditions: 10 μM
HT29 = test: NCI one-dose screening, colon cancer HT29; format: cell-based, human; conditions: 10 μM
SF-268 = test: NCI one-dose screening, CNS cancer SF-268; format: cell-based, human; conditions: 10 μM
SF-295 = test: NCI one-dose screening, CNS cancer SF-295; format: cell-based, human; conditions: 10 μM
SF-539 = test: NCI one-dose screening, CNS cancer SF-539; format: cell-based, human; conditions: 10 μM
SNB-19 = test: NCI one-dose screening, CNS cancer SNB-19; format: cell-based, human; conditions: 10 μM
SNB-75 = test: NCI one-dose screening, CNS cancer SNB-75; format: cell-based, human; conditions: 10 μM
U251 = test: NCI one-dose screening, CNS cancer U251; format: cell-based, human; conditions: 10 μM
LOX IMVI = test: NCI one-dose screening, melanoma LOX IMVI; format: cell-based, human; conditions: 10 μM
MALME-3M = test: NCI one-dose screening, melanoma MALME-3M; format: cell-based, human; conditions: 10 μM
M14 = test: NCI one-dose screening, melanoma M14; format: cell-based, human; conditions: 10 μM
UACC-62 = test: NCI one-dose screening, melanoma UACC-62; format: cell-based, human; conditions: 10 μM
UACC-257 = test: NCI one-dose screening, melanoma UACC-257; format: cell-based, human; conditions: 10 μM
SK-MEL-2 = test: NCI one-dose screening, melanoma SK-MEL-2; format: cell-based, human; conditions: 10 μM
SK-MEL-28 = test: NCI one-dose screening, melanoma SK-MEL-28; format: cell-based, human; conditions: 10 μM
SK-MEL-5 = test: NCI one-dose screening, melanoma SK-MEL-5; format: cell-based, human; conditions: 10 μM
IGROV1 = test: NCI one-dose screening, ovarian cancer IGROV1; format: cell-based, human; conditions: 10 μM
OVCAR-3 = test: NCI one-dose screening, ovarian cancer OVCAR-3; format: cell-based, human; conditions: 10 μM
OVCAR-4 = test: NCI one-dose screening, ovarian cancer OVCAR-4; format: cell-based, human; conditions: 10 μM
OVCAR-5 = test: NCI one-dose screening, ovarian cancer OVCAR-5; format: cell-based, human; conditions: 10 μM
OVCAR-8 = test: NCI one-dose screening, ovarian cancer OVCAR-8; format: cell-based, human; conditions: 10 μM
786-O = test: NCI one-dose screening, renal cancer 786-O; format: cell-based, human; conditions: 10 μM
CAKI-1 = test: NCI one-dose screening, renal cancer CAKI-1; format: cell-based, human; conditions: 10 μM
ACHN = test: NCI one-dose screening, renal cancer ACHN; format: cell-based, human; conditions: 10 μM
SN12C = test: NCI one-dose screening, renal cancer SN12C; format: cell-based, human; conditions: 10 μM
TK-10 = test: NCI one-dose screening, renal cancer TK-10; format: cell-based, human; conditions: 10 μM
UO-31 = test: NCI one-dose screening, renal cancer UO-31; format: cell-based, human; conditions: 10 μM
RXF, 393 = test: NCI one-dose screening, renal cancer RXF, 393; format: cell-based, human; conditions: 10 μM
DU145 = test: NCI one-dose screening, prostate cancer DU145; format: cell-based, human; conditions: 10 μM
PC-3 = test: NCI one-dose screening, prostate cancer PC-3; format: cell-based, human; conditions: 10 μM
MCF7 = test: NCI one-dose screening, breast cancer MCF7; format: cell-based, human; conditions: 10 μM
HS 578-T = test: NCI one-dose screening, breast cancer HS 578-T; format: cell-based, human; conditions: 10 μM; Breast cancer
MDA-MB-231/ATCC = test: NCI one-dose screening, breast cancer MDA-MB-231/ATCC; format: cell-based, human; conditions: 10 μM
MDA-MB-468 = test: NCI one-dose screening, breast cancer MDA-MB-468; format: cell-based, human; conditions: 10 μM
NCl/ADR-RES = test: NCI one-dose screening, breast cancer NCl/ADR-RES; format: cell-based, human; conditions: 10 μM; listed under Ovarian cancer
BT-549 = test: NCI one-dose screening, breast cancer BT-549; format: cell-based, human; conditions: 10 μM
T-47D = test: NCI one-dose screening, breast cancer T-47D; format: cell-based, human; conditions: 10 μM
MDA, -MB-435 = test: NCI one-dose screening, breast cancer MDA, -MB-435; format: cell-based, human; conditions: 10 μM; listed under Melanoma
human tumor cell lines = test: NCI one-dose screening, Mean / Delta / Range of growth percent over all tested cell lines; format: cell-based; conditions: 10 μM

O=C1c2ccccc2C(=O)c2c1cc(Nc1ccc(Cl)cc1)c1nsnc21 [C60, 4-(4-chloro-phenylamino)anthra[2,1-c] [1,2,5]thiadiazol-6,11-dione]
IC50 [1]: 9.5 µM | Growth Percent CCRF-CEM (CCRF-CEM): 44.80% | Growth Percent HL-60(TB) (HL-60, TB): 23.13% | Growth Percent MOLT-4 (MOLT-4): 11.82% | Growth Percent SR (SR): 19.52% | Growth Percent RPMI-8226 (PRMI-8226 cell line): 36.51% | Growth Percent K562 (K562cell line): 32.82% | Growth Percent EKVX (EKVX): 81.16% | Growth Percent HOP-62 (HOP-62): 71.23% | Growth Percent HOP-92 (HOP-92): 88.03% | Growth Percent NCI-H226 (NCI-H226): 66.43% | Growth Percent NCI-H23 (NCI-H23): 58.67% | Growth Percent NCI-H322M (NCI-H322M): 91.20% | Growth Percent NCI-H460 (NCI-H460): 29.27% | Growth Percent NCI-H522 (NCI-H522): 49.77% | Growth Percent A549/ATCC (A549/ATCC): 72.79% | Growth Percent COLO 205 (COLO 205): 94.87% | Growth Percent HCC-2998 (HCC-2998): 91.26% | Growth Percent HCT-116 (HCT-116): 40.51% | Growth Percent HCT-15 (HCT-15): 37.73% | Growth Percent KM12 (KM12): 71.40% | Growth Percent HT29 (HT29): 91.07% | Growth Percent SF-268 (SF-268): 63.91% | Growth Percent SF-295 (SF-295): 78.76% | Growth Percent SF-539 (SF-539): 69.85% | Growth Percent SNB-19 (SNB-19): 87.03% | Growth Percent SNB-75 (SNB-75): 69.41% | Growth Percent U251 (U251): 35.47% | Growth Percent LOX IMVI (LOX IMVI): 27.09% | Growth Percent MALME-3M (MALME-3M): 61.29% | Growth Percent M14 (M14): 106.75% | Growth Percent UACC-62 (UACC-62): 64.65% | Growth Percent UACC-257 (UACC-257): 69.64% | Growth Percent SK-MEL-2 (SK-MEL-2): 84.09% | Growth Percent SK-MEL-28 (SK-MEL-28): 77.13% | Growth Percent SK-MEL-5 (SK-MEL-5): 29.92% | Growth Percent IGROV1 (IGROV1): 55.18% | Growth Percent OVCAR-3 (OVCAR-3): 76.23% | Growth Percent OVCAR-4 (OVCAR-4): 9.58% | Growth Percent OVCAR-5 (OVCAR-5): 121.21% | Growth Percent OVCAR-8 (OVCAR-8): 45.71% | Growth Percent 786-0 (786-O): 95.95% | Growth Percent CAKI-1 (CAKI-1): 58.59% | Growth Percent ACHN (ACHN): 70.10% | Growth Percent SN12C (SN12C): 81.98% | Growth Percent TK-10 (TK-10): 100.37% | Growth Percent UO-31 (UO-31): 49.04% | Growth Percent RXF 393 (RXF, 393): 66.60% | Growth Percent DU145 (DU145): 87.28% | Growth Percent PC-3 (PC-3): 42.48% | Growth Percent MCF7 (MCF7): 59.01% | Growth Percent HS 578T (HS 578-T): 76.50% | Growth Percent MDA-MB-231/ATCC (MDA-MB-231/ATCC): 57.00% | Growth Percent MDA-MB-468 (MDA-MB-468): 32.52% | Growth Percent NCI/ADR-RES (NCl/ADR-RES): 55.91% | Growth Percent BT-549 (BT-549): 96.78% | Growth Percent T-47D (T-47D): 65.23% | Growth Percent MDA-MB-435 (MDA, -MB-435): 72.21% | Growth Percent Delta (human tumor cell lines; delta over all cell lines): 53.61% | Growth Percent Mean (human tumor cell lines; mean over all cell lines): 63.19% | Growth Percent Range (human tumor cell lines; range over all cell lines): 111.63%
